Read-outs that look alike come from different tables or passages of the source.
Columns and labels:
[1] = tested on: KHYG-1 NK cell-mediated lysis of K562 cells; assay: Inhibition of KHYG-1 NK cell-mediated lysis of K562 cells (51Cr release); assay type: cell-based; conditions: K562 target cells, Effector:Target 2:1, 4 hours at 37° C.; for inhibition at 20 µM: 4 h
Description: Inhibition of KHYG-1 NK Cell-Mediated Lysis of K562 Cells.
Test compounds were added to KHYG-1 cells at various concentrations up to 20 µM and incubated at RT for 20 minutes. 1×10^6 K562 target cells were labelled with 75 μCi ^51Cr in 200 μl RPMI for 90 mins at 37° C., cells were washed as described above and resuspended in 5 ml RPMI+0.1% BSA. 50 μl of ^51Cr labelled K562 leukemia target cells were added to each well of the KHYG-1 plate (Effector:Target 2:1) and incubated at 37° C. for 4 hours. ^51Cr release was assayed using a Skatron Harvesting Press and radioactivity estimated on a Wallac Wizard 1470 Automatic Gamma counter (Turku, Finland). The percentage of specific cytotoxicity was calculated by the formula: […]

recombinant perforin = recombinant perforin (UniProt P10820); assay type: cell-based
Description: Inhibition of perforin-mediated lysis of Jurkat cells.
The ability of the compounds to inhibit the lysis of nucleated (Jurkat T lymphoma) cells in the presence of 0.1% BSA, as measured by release of ^51Cr was measured. Jurkat target cells were labelled by incubation in medium with 100 μCi ^51Cr for one hour. The cells were then washed three times to remove unincorporated isotope and re-suspended at 1×10^5 cells per mL in RPMI buffer supplemented with 0.1% BSA. […] Each data point was performed in triplicate and an IC50 was calculated from the range of concentrations described to above.

[2] = lysis of Jurkat T lymphoma cells by recombinant perforin, 0.1% BSA, 30 min pre-incubation, 4 hours at 37° C.; read-out: Jurkat IC50
[3] = read-out: Jurkat IC50; lysis of Jurkat T lymphoma cells by recombinant perforin, 0.1% BSA, 30 min pre-incubation, 4 hours at 37° C.

Sequence of recombinant perforin (P10820 whole entry): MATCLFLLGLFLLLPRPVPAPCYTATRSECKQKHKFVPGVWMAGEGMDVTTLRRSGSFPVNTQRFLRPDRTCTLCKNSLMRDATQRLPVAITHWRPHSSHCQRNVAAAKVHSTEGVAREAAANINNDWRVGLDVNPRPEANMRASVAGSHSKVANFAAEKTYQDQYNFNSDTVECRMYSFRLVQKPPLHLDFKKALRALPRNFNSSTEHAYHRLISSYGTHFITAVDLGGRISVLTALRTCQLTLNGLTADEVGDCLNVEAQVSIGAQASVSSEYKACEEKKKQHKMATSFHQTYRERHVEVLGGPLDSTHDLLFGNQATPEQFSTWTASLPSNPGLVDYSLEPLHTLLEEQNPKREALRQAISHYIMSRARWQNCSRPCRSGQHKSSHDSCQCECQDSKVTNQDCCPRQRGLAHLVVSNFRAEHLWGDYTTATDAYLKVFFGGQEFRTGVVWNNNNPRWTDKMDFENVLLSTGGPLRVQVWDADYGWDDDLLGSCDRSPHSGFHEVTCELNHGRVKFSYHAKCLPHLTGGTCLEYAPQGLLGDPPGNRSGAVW

Row | Structure (SMILES) | melting point | inhibition at 20 µM [1] | IC50 (recombinant perforin; [2]) | other results
1 | Cc1ccc(NS(=O)(=O)c2ccc(F)cc2F)cc1-c1ccc(-c2ccc3c(c2)CN(C)C3=O)s1 [Compound 61, 2,4-Difluoro-N-(4-methyl-3-(5-(2-methyl-1-oxoisoindolin-5-yl)thiophen-2-yl)phenyl)benzenesulfonamide] | 268 to 271 °C | – | – | –
2 | CC1c2cc(-c3ccc(-c4cncc(NS(=O)(=O)c5ccc(F)cc5F)c4)s3)ccc2C(=O)N1C (centres unmarked) [Compound 51, N-(5-(5-(2,3-Dimethyl-1-oxoisoindolin-5-yl)thiophen-2-yl)pyridin-3-yl)-2,4-difluorobenzenesulfonamide] | 229 to 230 °C | – | – | –
3 | CN1Cc2cc(-c3ccc(-c4cncc(NC(=O)c5ccc(F)cc5F)c4)s3)ccc2C1=O [Compound 47, 2,4-Difluoro-N-(5-(5-(2-methyl-1-oxoisoindolin-5-yl)thiophen-2-yl)pyridin-3-yl)benzamide] | 267 to 269 °C | – | – | –
4 | CN1CCc2cc(-c3ccc(-c4cncc(NS(=O)(=O)c5ccc(F)cc5F)c4)s3)ccc2C1=O [Compound 53, 2,4-Difluoro-N-(5-(5-(2-methyl-1-oxo-1,2,3,4-tetrahydroisoquinolin-6-yl)thiophen-2-yl)pyridin-3-yl)benzenesulfonamide] | 262 to 265 °C | – | – | –
5 | CN1Cc2cc(-c3ccc(-c4cncc(NS(=O)(=O)c5ccc(Cl)nc5)c4)s3)ccc2C1=O [Compound 33, 6-Chloro-N-(5-(5-(2-methyl-1-oxoisoindolin-5-yl)thiophen-2-yl)pyridin-3-yl)pyridine-3-sulfonamide] | 260 to 265 °C | – | – | –
6 | CN1Cc2cc(-c3ccc(-c4cncc(NS(=O)(=O)c5ccc(F)c(F)c5)c4)s3)ccc2C1=O [Compound 7, 3,4-Difluoro-N-(5-(5-(2-methyl-1-oxoisoindolin-5-yl)thiophen-2-yl)pyridin-3-yl)benzene-sulfonamide] | 282 to 285 °C | – | – | –
7 | CN1Cc2cc(-c3ccc(-c4cncc(NS(=O)(=O)c5ccc(C#N)cc5)c4)s3)ccc2C1=O [Compound 30, 4-Cyano-N-(5-(5-(2-methyl-1-oxoisoindolin-5-yl)thiophen-2-yl)pyridin-3-yl)benzenesulfonamide] | – | 49% | 5.17 µM | –
8 | CN1Cc2cc(-c3ccc(-c4cnc(Cl)c(NS(=O)(=O)c5ccc(F)cc5F)c4)s3)ccc2C1=O [Compound 40, 2,4-Difluoro-N-(2-chloro-5-(5-(2-methyl-1-oxoisoindolin-5-yl)thiophen-2-yl)pyridin-3-yl)benzenesulphonamide] | – | 85% | 1.03 µM | –
9 | CN1Cc2cc(-c3ccc(-c4cncc(NS(=O)(=O)c5ccccc5S(C)(=O)=O)c4)s3)ccc2C1=O [Compound 82, N-(5-(5-(2-Methyl-1-oxoisoindolin-5-yl)thiophen-2-yl)pyridin-3-yl)-2-(methylsulfonyl)benzenesulfonamides] | – | 30.5 ± 11% | 6.8 µM | –
10 | CN1Cc2cc(-c3ccc(-c4cncc(NS(=O)(=O)c5ccc(C(=O)O)cc5)c4)s3)ccc2C1=O [Compound 73, 4-(N-(5-(5-(2-Methyl-1-oxoisoindolin-5-yl)thiophen-2-yl)pyridin-3-yl)sulfamoyl)benzoic acid] | – | 56.9 ± 29.6% | 0.75 µM | –
11 | CN1Cc2cc(-c3ccc(-c4cncc(NS(=O)(=O)c5ccc(I)cc5)c4)s3)ccc2C1=O [Compound 74, 4-Iodo-N-(5-(5-(2-methyl-1-oxoisoindolin-5-yl)thiophen-2-yl)pyridin-3-yl)benzenesulfonamides] | – | 15.6 ± 5% | 5 µM | –
12 | O=C1Cc2cc(-c3ccc(-c4cncc(NS(=O)(=O)c5ccc(F)cc5F)c4)s3)ccc2N1 [Compound 67, 2,4-Difluoro-N-(5-(5-(2-oxoindolin-5-yl)thiophen-2-yl)pyridin-3-yl)benzenesulfonamides] | – | 42.8 ± 10% | – | IC50 (recombinant perforin; [3]): 5.04 µM
13 | COC(=O)c1ccc(S(=O)(=O)Nc2cncc(-c3ccc(-c4ccc5c(c4)CN(C)C5=O)s3)c2)cc1 [Compound 84, Methyl 4-(N-(5-(5-(2-methyl-1-oxoisoindolin-5-yl)thiophen-2-yl)pyridin-3-yl)sulfamoyl)benzoate] | – | 8.84% | 8.16 µM | –
14 | O=C1NCCc2cc(-c3ccc(-c4cncc(NS(=O)(=O)c5ccc(F)cc5F)c4)s3)ccc21 [Compound 52, 2,4-Difluoro-N-(5-(5-(1-oxo-1,2,3,4-tetrahydroisoquinolin-6-yl)thiophen-2-yl)pyridin-3-yl)benzensulphonamide] | 267 to 270 °C | – | – | –
15 | O=C1c2ccc(-c3ccc(-c4cncc(NS(=O)(=O)c5ccc(F)cc5F)c4)s3)cc2CN1CCCO [Compound 57, 2,4-Difluoro-N-(5-(5-(2-(3-hydroxypropyl)-1-oxoisoindolin-5-yl)thiophen-2-yl)pyridin-3-yl)benzenesulfonamide] | 239 to 241 °C | – | – | –
16 | CN1Cc2cc(-c3ccc(-c4cncc(NS(=O)(=O)c5ccccc5)c4)s3)ccc2C1=O [Compound 62, N-(5-(5-(2-Methyl-1-oxoisoindolin-5-yl)thiophen-2-yl)pyridin-3-yl)benzenesulphonamide] | – | 9.71 ± 2% | 8.46 µM | –
17 | CN1Cc2cc(-c3ccc(-c4cncc(NS(=O)(=O)c5ccc(C(F)(F)F)cc5Cl)c4)s3)ccc2C1=O [Compound 26, 2-Chloro-N-(5-(5-(2-methyl-1-oxoisoindolin-5-yl)thiophen-2-yl)pyridin-3-yl)-4-(trifluoromethyl)benzenesulfonamide] | 292 to 295 °C | – | – | –
18 | CN1Cc2cc(-c3ccc(-c4ccc(NS(=O)(=O)c5ccc(F)cc5F)nc4)s3)ccc2C1=O [Compound 42, 2,4-Difluoro-N-(5-(5-(2-methyl-1-oxoisoindolin-5-yl)thiophen-2-yl)pyridin-2-yl)benzenesulfonamide] | 269 to 272 °C | – | – | –
19 | COc1ncc(-c2ccc(-c3ccc4c(c3)CN(C)C4=O)s2)cc1NS(=O)(=O)c1ccccc1 [Compound 36, N-(2-Methoxy-5-(5-(2-methyl-1-oxoisoindolin-5-yl)thiophen-2-yl)pyridin-3-yl)benzenesulphonamide] | 280 to 283 °C | – | – | –
20 | CN1Cc2cc(-c3ccc(-c4cncc(NS(=O)(=O)c5cccc(F)c5)c4)s3)ccc2C1=O [Compound 5, 3-Fluoro-N-(5-(5-(2-methyl-1-oxoisoindolin-5-yl)thiophen-2-yl)pyridin-3-yl)benzene-sulfonamide] | 292 to 294 °C | – | – | –
21 | CN1Cc2cc(-c3ccc(-c4cncc(NS(=O)(=O)c5ccc(Cl)cc5)c4)s3)ccc2C1=O [Compound 11.Na, 4-Chloro-N-(5-(5-(2-methyl-1-oxoisoindolin-5-yl)thiophen-2-yl)pyridin-3-yl)benzenesulfonamide] | – | 14% | 8.28 µM | –
22 | CN1Cc2cc(-c3ccc(-c4cnc(F)c(NS(=O)(=O)c5ccc(F)cc5F)c4)s3)ccc2C1=O [Compound 39.Na, 2,4-Difluoro-N-(2-fluoro-5-(5-(2-methyl-1-oxoisoindolin-5-yl)thiophen-2-yl)pyridin-3-yl)benzenesulphonamide] | – | – | 0.75 µM | Inhibition of KHYG-1 at 20 μM (%) [1]: 48%
23 | CN1C(=O)Cc2cc(-c3ccc(-c4cncc(NS(=O)(=O)c5ccc(F)cc5F)c4)s3)ccc21 [Compound 66, 2,4-Difluoro-N-(5-(5-(1-methyl-2-oxoindolin-5-yl)thiophen-2-yl)pyridin-3-yl)benzenesulfonamides] | – | 34.3 ± 9% | – | IC50 (recombinant perforin; [3]): 10.2 µM
24 | CN1Cc2cc(-c3ccc(-c4cncc(NS(=O)(=O)c5ccc(F)cc5)c4)s3)ccc2C1=O [Compound 6, 4-Fluoro-N-(5-(5-(2-methyl-1-oxoisoindolin-5-yl)thiophen-2-yl)pyridin-3-yl)benzene-sulfonamide] | – | 10% | 9.65 µM | –
25 | COC(=O)c1ccccc1S(=O)(=O)Nc1cncc(-c2ccc(-c3ccc4c(c3)CN(C)C4=O)s2)c1 [Compound 86, Methyl 2-(N-(5-(5-(2-methyl-1-oxoisoindolin-5-yl)thiophen-2-yl)pyridin-3-yl)sulfamoyl)benzoate] | – | 2.3 ± 3% | 2.9 µM | –
26 | CN1Cc2cc(-c3ncc(-c4cncc(NS(=O)(=O)c5ccc(F)cc5F)c4)s3)ccc2C1=O [Compound 88, 2,4-Difluoro-N-(5-(2-(2-methyl-1-oxoisoindolin-5-yl)thiazol-5-yl)pyridin-3-yl)benzenesulphonamide] | – | 40.5 ± 23% | – | IC50 (recombinant perforin; [3]): 18.8 µM
27 | CN1Cc2cc(-c3ccc(-c4ccc(OC(F)(F)F)c(NS(=O)(=O)c5ccccn5)c4)s3)ccc2C1=O [Compound 63.Na, N-(5-(5-(2-Methyl-1-oxoisoindolin-5-yl)thiophen-2-yl)-2-(trifluoromethoxy)phenyl)pyridine-2-sulfonamide] | – | – | 19.6 µM | Inhibition of KHYG-1 at 20 μM (%) [1]: 77.07 ± 5%
28 | CN1Cc2cc(-c3ccc(-c4cncc(NS(=O)(=O)c5ccc(Br)cc5Br)c4)s3)ccc2C1=O [Compound 75, 2,4-Dibromo-N-(5-(5-(2-methyl-1-oxoisoindolin-5-yl)thiophen-2-yl)pyridin-3-yl)benzenesulfonamides] | – | 49.2 ± 15% | 2.52 µM | –

— US9896443B2, “Perforin inhibiting benzenesulfonamide compounds, preparation and uses thereof” (Peter MacCallum Cancer Institute, priority 2012, dated 2018)
